Where a name gives a salt, the structure may show the parent alone.
Experiments:
[1] = system: marine bacteria (26 strains); assay: Disk inhibition assay; type: cell-based, marine bacteria isolated from Singapore fouling communities
Method in brief: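 Tablets or capsule powders suspended in sterile water at 2 mg ml^−1 and loaded onto disks; antibiotic discs (Amp, Ery, Str, Tet) served as comparison. Disks placed on swabbed lawns on Marine Agar, incubated overnight in the dark at 30° C. Zone of clearing diameter measured by calipers; three replicates on three occasions.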

[2] = system: marine bacteria; assay: Growth assay (absorbance, 96-well plates); type: cell-based, marine bacteria isolated from Singapore fouling communities; details: 25 μg ml^−1
Method: The dried powder was re-suspended in sterile deionized water and made up to 2 mg ml^−1.
The same bacterial strains were used and cultured the same way as in disc inhibition assay. Cells were harvested by centrifugation at 300 rpm for 10 min. The supernatant was discarded and the pellet re-suspended using sterile seawater collected from St. John's island, Singapore. The concentration of bacterial cells was adjusted to an absorbance of approximately 0.6 using a spectrophotometer (Beckman DU530) at wavelength 600 nm.
The growth with response to the pharmaceuticals was assumed to be proportional to the absorbance of the bacteria. […] To each well 25 μl of each drug solution (concentration adjusted to 100 μg ml^−1) were pipetted into three wells followed by 10 μl of broth and 65 μl of sterile seawater. For wells that were to contain bacteria, 60 μl of sterile seawater was used instead. All wells used for growth studies were prepared in triplicate and inoculated with 5 μl of the bacterial suspension. Blanks consisting of the respective volumes of pharmaceutical with Marine Broth and distilled water, if needed, were prepared in triplicate and inoculated with 5 μl of sterile seawater.
The absorbance (A600) of each well was read in a plate reader (Sunrise Tecan Model F039300) immediately (time=0 hours) and after 1, 2, 3, 4, 20, 23 and 28 hours. Plates were incubated overnight inside a moistened airtight container.
Any changes in absorbance were plotted and compared with control. The mean absorbance (mean bac) from the bacteria was obtained by deducting the absorbance values of blank wells (containing seawater and broth only) from that for the control wells (containing bacteria in seawater and broth only). The absorbance arising from the drugs was obtained from the 0 hr reading for wells containing drugs and bacteria, minus the wells with drugs alone (mean “drug”). The growth assays were repeated three times.

SMILES: CN1CCN(CCCN2c3ccccc3Sc3ccc(C(F)(F)F)cc32)CC1 [TFZ, Trifluoperazine hydrochloride]
- Number of strains inhibited out of 26 strains ([1]; 25 μg per disc): 22
- Strains showing no inhibition (of 26) ([1]; 50 μg per disc): 2
- Antibiotic activity against marine bacteria ([1]; 25 or 50 μg per disc, in words): strongest activity
- Antibiotic activity against marine bacteria ([1]; crude rank, best (1) to worst (8)): 3
- zone of inhibition at 25 µg/disc ([1]; strain 1 (Rhodovulum), 25 μg per disc): < 5 mm
- zone of inhibition at 50 µg/disc ([1]; strain 1 (Rhodovulum), 50 μg per disc): < 5 mm
- zone of inhibition at 25 µg/disc ([1]; strain 2 (Erythrobacter), 25 μg per disc): < 5 mm
- zone of inhibition at 50 µg/disc ([1]; strain 2 (Erythrobacter), 50 μg per disc): 10 to 19 mm
- zone of inhibition at 25 µg/disc ([1]; strain 3 (Erythrobacter), 25 μg per disc): 10 to 19 mm
- zone of inhibition at 50 µg/disc ([1]; strain 3 (Erythrobacter), 50 μg per disc): 10 to 19 mm
- zone of inhibition at 25 µg/disc ([1]; strain 4 (Bacillus), 25 μg per disc): 10 to 19 mm
- zone of inhibition at 50 µg/disc ([1]; strain 4 (Bacillus), 50 μg per disc): 10 to 19 mm
- zone of inhibition at 25 µg/disc ([1]; strain 6 (Vibrio), 25 μg per disc): 5 to 9 mm
- zone of inhibition at 50 µg/disc ([1]; strain 6 (Vibrio), 50 μg per disc): 5 to 9 mm
- zone of inhibition at 25 µg/disc ([1]; strain 7 (Vibrio), 25 μg per disc): < 5 mm
- zone of inhibition at 50 µg/disc ([1]; strain 7 (Vibrio), 50 μg per disc): 5 to 9 mm
- zone of inhibition at 25 µg/disc ([1]; strain 8 (Bacillus), 25 μg per disc): 5 to 9 mm
- zone of inhibition at 50 µg/disc ([1]; strain 8 (Bacillus), 50 μg per disc): 10 to 19 mm
- zone of inhibition at 25 µg/disc ([1]; strain 9 (Bacillus), 25 μg per disc): 10 to 19 mm
- zone of inhibition at 50 µg/disc ([1]; strain 9 (Bacillus), 50 μg per disc): 10 to 19 mm
- zone of inhibition at 25 µg/disc ([1]; strain 10 (Halobacillus), 25 μg per disc): 10 to 19 mm
- zone of inhibition at 50 µg/disc ([1]; strain 10 (Halobacillus), 50 μg per disc): 10 to 19 mm
- zone of inhibition at 25 µg/disc ([1]; strain 11 (Pseudomonas), 25 μg per disc): 10 to 19 mm
- zone of inhibition at 50 µg/disc ([1]; strain 11 (Pseudomonas), 50 μg per disc): 10 to 19 mm
- zone of inhibition at 25 µg/disc ([1]; strain 12 (Gordonia), 25 μg per disc): 10 to 19 mm
- zone of inhibition at 50 µg/disc ([1]; strain 12 (Gordonia), 50 μg per disc): 10 to 19 mm
- zone of inhibition at 25 µg/disc ([1]; strain 13 (Bacillus), 25 μg per disc): 10 to 19 mm
- zone of inhibition at 50 µg/disc ([1]; strain 13 (Bacillus), 50 μg per disc): 10 to 19 mm
- zone of inhibition at 25 µg/disc ([1]; strain 14 (Vibrio), 25 μg per disc): < 5 mm
- zone of inhibition at 50 µg/disc ([1]; strain 14 (Vibrio), 50 μg per disc): < 5 mm
- zone of inhibition at 25 µg/disc ([1]; strain 16 (Pseudoalteromonas), 25 μg per disc): 5 to 9 mm
- zone of inhibition at 50 µg/disc ([1]; strain 16 (Pseudoalteromonas), 50 μg per disc): 10 to 19 mm
- zone of inhibition at 25 µg/disc ([1]; strain 17 (Gordonia), 25 μg per disc): 5 to 9 mm
- zone of inhibition at 50 µg/disc ([1]; strain 17 (Gordonia), 50 μg per disc): 10 to 19 mm
- zone of inhibition at 25 µg/disc ([1]; strain 18 (Microbacterium), 25 μg per disc): 10 to 19 mm
- zone of inhibition at 50 µg/disc ([1]; strain 18 (Microbacterium), 50 μg per disc): 10 to 19 mm
- zone of inhibition at 25 µg/disc ([1]; strain 19 (Erythrobacter), 25 μg per disc): 10 to 19 mm
- zone of inhibition at 50 µg/disc ([1]; strain 19 (Erythrobacter), 50 μg per disc): 10 to 19 mm
- zone of inhibition at 25 µg/disc ([1]; strain 20, 25 μg per disc): 10 to 19 mm
- zone of inhibition at 50 µg/disc ([1]; strain 20, 50 μg per disc): 20 to 29 mm
- zone of inhibition at 25 µg/disc ([1]; strain 21, 25 μg per disc): 5 to 9 mm
- zone of inhibition at 50 µg/disc ([1]; strain 21, 50 μg per disc): 5 to 9 mm
- zone of inhibition at 25 µg/disc ([1]; strain 22, 25 μg per disc): 10 to 19 mm
- zone of inhibition at 50 µg/disc ([1]; strain 22, 50 μg per disc): 20 to 29 mm
- zone of inhibition at 25 µg/disc ([1]; strain 24, 25 μg per disc): 10 to 19 mm
- zone of inhibition at 50 µg/disc ([1]; strain 24, 50 μg per disc): 10 to 19 mm
- zone of inhibition at 25 µg/disc ([1]; strain 26, 25 μg per disc): 5 to 9 mm
- zone of inhibition at 50 µg/disc ([1]; strain 26, 50 μg per disc): 10 to 19 mm
- zone of inhibition at 25 µg/disc ([1]; strain 27, 25 μg per disc): 10 to 19 mm
- zone of inhibition at 50 µg/disc ([1]; strain 27, 50 μg per disc): 10 to 19 mm
- zone of inhibition at 25 µg/disc ([1]; strain 28, 25 μg per disc): 5 to 9 mm
- zone of inhibition at 50 µg/disc ([1]; strain 28, 50 μg per disc): 10 to 19 mm
- zone of inhibition at 25 µg/disc ([1]; strain 29, 25 μg per disc): 10 to 19 mm
- zone of inhibition at 50 µg/disc ([1]; strain 29, 50 μg per disc): 10 to 19 mm
- zone of inhibition at 25 µg/disc ([1]; strain 30, 25 μg per disc): 10 to 19 mm
- zone of inhibition at 50 µg/disc ([1]; strain 30, 50 μg per disc): 10 to 19 mm
- Number of strains with strongly inhibited growth ([2]; 25 strains of Table 5): 14
- Inhibition of bacterial growth ([2]; strain 1 (Rhodovulum)): 0
- Inhibition of bacterial growth ([2]; strain 2 (Erythrobacter)): 0
- Inhibition of bacterial growth ([2]; strain 3 (Erythrobacter)): +++ (+++ denotes little or no growth, p < 0.001)
- Inhibition of bacterial growth ([2]; strain 4 (Bacillus)): +++ (+++ denotes little or no growth, p < 0.001)
- Inhibition of bacterial growth ([2]; strain 6 (Vibrio)): + (+ denotes growth present but inhibited, p < 0.01)
- Inhibition of bacterial growth ([2]; strain 7 (Vibrio)): + (+ denotes growth present but inhibited, p < 0.01)
- Inhibition of bacterial growth ([2]; strain 8 (Bacillus)): + (+ denotes growth present but inhibited, p < 0.01)
- Inhibition of bacterial growth ([2]; strain 9 (Bacillus)): +++ (+++ denotes little or no growth, p < 0.001)
- Inhibition of bacterial growth ([2]; strain 10 (Halobacillus)): +++ (+++ denotes little or no growth, p < 0.001)
- Inhibition of bacterial growth ([2]; strain 11 (Pseudomonas)): + (+ denotes growth present but inhibited, p < 0.01)
- Inhibition of bacterial growth ([2]; strain 12 (Gordonia)): +++ (+++ denotes little or no growth, p < 0.001)
- Inhibition of bacterial growth ([2]; strain 13 (Bacillus)): +++ (+++ denotes little or no growth, p < 0.001)
- Inhibition of bacterial growth ([2]; strain 14 (Vibrio)): 0
- Inhibition of bacterial growth ([2]; strain 16 (Pseudoalteromonas)): 0
- Inhibition of bacterial growth ([2]; strain 17 (Gordonia)): +++ (+++ denotes little or no growth, p < 0.001)
- Inhibition of bacterial growth ([2]; strain 18 (Microbacterium)): +++ (+++ denotes little or no growth, p < 0.001)
- Inhibition of bacterial growth ([2]; strain 19 (Erythrobacter)): +++ (+++ denotes little or no growth, p < 0.001)
- Inhibition of bacterial growth ([2]; strain 20): + (+ denotes growth present but inhibited, p < 0.01)
- Inhibition of bacterial growth ([2]; strain 21): 0
- Inhibition of bacterial growth ([2]; strain 24): + (+ denotes growth present but inhibited, p < 0.01)
- Inhibition of bacterial growth ([2]; strain 26): 0
- Inhibition of bacterial growth ([2]; strain 27): +++ (+++ denotes little or no growth, p < 0.001)
- Inhibition of bacterial growth ([2]; strain 28): +++ (+++ denotes little or no growth, p < 0.001)
- Inhibition of bacterial growth ([2]; strain 29): +++ (+++ denotes little or no growth, p < 0.001)
- Inhibition of bacterial growth ([2]; strain 30): +++ (+++ denotes little or no growth, p < 0.001)
